Assay results published in US20140343000A1 (priority 2011, published 2014).
pEC50: −log10 of the molar value.

tested on: recombinant NL4-3 virus (Renilla luciferase in nef, Gag P373S; NLRluc) in MT-2 cells; experiment: whole plant or invertebrate; assay type: cell-based, HIV; details: Renilla, NL43, luciferase activity in cells infected for 4-5 days with NLRluc recombinants, serial dilutions of inhibitor; class symbols (key in Table 1); read-out: EC50
Outline: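 Virus from 293T transfection, titered in MT-2 by luciferase. MT-2 (RPMI, 10% HI-FBS) infected ± inhibitor serial dilutions, 4-5 d. Readout: Dual Luciferase premix (lysis:reagent:Stop & Glo 2:1:1), immediate luminescence.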

| SMILES | pEC50 |
| --- | --- |
| C=C(C)[C@@H]1CC[C@]2(NC(=O)N(CCO)CCN3CCS(=O)(=O)CC3)CC[C@]3(C)[C@H](CC[C@@H]4[C@@]5(C)CC=C(c6ccc(C(=O)O)cc6)C(C)(C)[C@@H]5CC[C@]43C)[C@@H]12 [Example 65, 4-((1R,3aS,5aR,5bR,7aR,11aS,11bR,13aR,13bR)-3a-(((2-(1,1-dioxido-4-thiomorpholinyl)ethyl)(2-hydroxyethyl)carbamoyl)amino)-1-isopropenyl-5a,5b,8,8,11a-pentamethyl-2,3,3a,4,5,5a,5b,6,7,7a,8,11,11a,11b,12,13,13a,13b-octadecahydro-1H-cyclopenta[a]chrysen-9-yl)benzoic acid] | > 7.00 |
| C=C(C)[C@@H]1CC[C@]2(NC(=O)N(CCCO)CCN3CCS(=O)(=O)CC3)CC[C@]3(C)[C@H](CC[C@@H]4[C@@]5(C)CC=C(c6ccc(C(=O)O)cc6)C(C)(C)[C@@H]5CC[C@]43C)[C@@H]12 [Example 66, 4-((1R,3aS,5aR,5bR,7aR,11aS,11bR,13aR,13bR)-3a-(((2-(1,1-dioxido-4-thiomorpholinyl)ethyl)(3-hydroxypropyl)carbamoyl)amino)-1-isopropenyl-5a,5b,8,8,11a-pentamethyl-2,3,3a,4,5,5a,5b,6,7,7a,8,11,11a,11b,12,13,13a,13b-octadecahydro-1H-cyclopenta[a]chrysen-9-yl)benzoic acid] | > 7.00 |
| C=C(C)[C@@H]1CC[C@]2(NC(=O)N(CCOC)CCN3CCS(=O)(=O)CC3)CC[C@]3(C)[C@H](CC[C@@H]4[C@@]5(C)CC=C(c6ccc(C(=O)O)cc6)C(C)(C)[C@@H]5CC[C@]43C)[C@@H]12 [Example 67, 4-((1R,3aS,5aR,5bR,7aR,11aS,11bR,13aR,13bR)-3a-(((2-(1,1-dioxido-4-thiomorpholinyl)ethyl)(2-methoxyethyl)carbamoyl)amino)-1-isopropenyl-5a,5b,8,8,11a-pentamethyl-2,3,3a,4,5,5a,5b,6,7,7a,8,11,11a,11b,12,13,13a,13b-octadecahydro-1H-cyclopenta[a]chrysen-9-yl)benzoic acid] | > 7.00 |
| C=C(C)[C@@H]1CC[C@]2(NC(=O)N(CCCOC)CCN3CCS(=O)(=O)CC3)CC[C@]3(C)[C@H](CC[C@@H]4[C@@]5(C)CC=C(c6ccc(C(=O)O)cc6)C(C)(C)[C@@H]5CC[C@]43C)[C@@H]12 [Example 68, 4-((1R,3aS,5aR,5bR,7aR,11aS,11bR,13aR,13bR)-3a-(((2-(1,1-dioxido-4-thiomorpholinyl)ethyl)(3-methoxypropyl)carbamoyl)amino)-1-isopropenyl-5a,5b,8,8,11a-pentamethyl-2,3,3a,4,5,5a,5b,6,7,7a,8,11,11a,11b,12,13,13a,13b-octadecahydro-1H-cyclopenta[a]chrysen-9-yl)benzoic acid] | > 7.00 |
| C=C(C)[C@@H]1CC[C@]2(NC(=O)N(CCN3CCS(=O)(=O)CC3)CCN3CCS(=O)(=O)CC3)CC[C@]3(C)[C@H](CC[C@@H]4[C@@]5(C)CC=C(c6ccc(C(=O)O)cc6)C(C)(C)[C@@H]5CC[C@]43C)[C@@H]12 [Example 69, 4-((1R,3aS,5aR,5bR,7aR,11aS,11bR,13aR,13bR)-3a-((bis(2-(1,1-dioxido-4-thiomorpholinyl)ethyl)carbamoyl)amino)-1-isopropenyl-5a,5b,8,8,11a-pentamethyl-2,3,3a,4,5,5a,5b,6,7,7a,8,11,11a,11b,12,13,13a,13b-octadecahydro-1H-cyclopenta[a]chrysen-9-yl)benzoic acid] | > 7.00 |
| C=C(C)[C@@H]1CC[C@]2(NC(N)=O)CC[C@]3(C)[C@H](CC[C@@H]4[C@@]5(C)CC=C(c6ccc(C(=O)O)cc6)C(C)(C)[C@@H]5CC[C@]43C)[C@@H]12 [Example 69-1, 4-((1R,3aS,5aR,5bR,7aR,11aS,11bR,13aR,13bR)-5a,5b,8,8,11a-pentamethyl-1-(prop-1-en-2-yl)-3a-ureido-2,3,3a,4,5,5a,5b,6,7,7a,8,11,11a,11b,12,13,13a,13b-octadecahydro-1H-cyclopenta[a]chrysen-9-yl)benzoic acid] | > 7.00 |
| C=C(C)[C@@H]1CC[C@]2(NC(=O)OCCCN3CCS(=O)(=O)CC3)CC[C@]3(C)[C@H](CC[C@@H]4[C@@]5(C)CC=C(c6ccc(C(=O)O)cc6)C(C)(C)[C@@H]5CC[C@]43C)[C@@H]12 [Example 70, benzoic acid, 4-[(1R,3aS,5aR,5bR,7aR,11aS,11bR,13aR,13bR)-3a-[[[3-(1,1-dioxido-4-thiomorpholinyl)propoxy]carbonyl]amino]2,3,3a,4,5,5a,5b,6,7,7a,8,11,11a,11b,12,13,13a,13b-octadecahydro-5a,5b,8,8,11a-pentamethyl-1-(1-methylethenyl)-1H-cyclopenta[a]chrysen-9-yl]] | > 7.00 |
| C=C(C)[C@@H]1CC[C@]2(NC(=O)OCCN3CCS(=O)(=O)CC3)CC[C@]3(C)[C@H](CC[C@@H]4[C@@]5(C)CC=C(c6ccc(C(=O)O)cc6)C(C)(C)[C@@H]5CC[C@]43C)[C@@H]12 [Example 71, benzoic acid, 4-[(1R,3aS,5aR,5bR,7aR,11aS,11bR,13aR,13bR)-3a-[[[2-(1,1-dioxido-4-thiomorpholinyl)ethoxy]carbonyl]amino]-2,3,3a,4,5,5a,5b,6,7,7a,8,11,11a,11b,12,13,13a,13b-octadecahydro-5a,5b,8,8,11a-pentamethyl-1-(1-methylethenyl)-1H-cyclopenta[a]chrysen-9-yl]] | > 7.00 |
| C=C(C)[C@@H]1CC[C@]2(NC(=O)OCCCCN3CCS(=O)(=O)CC3)CC[C@]3(C)[C@H](CC[C@@H]4[C@@]5(C)CC=C(c6ccc(C(=O)O)cc6)C(C)(C)[C@@H]5CC[C@]43C)[C@@H]12 [Example 72, benzoic acid, 4-[(1R,3aS,5aR,5bR,7aR,11aS,11bR,13aR,13bR)-3a-[[[4-(1,1-dioxido-4-thiomorpholinyl)butoxy]carbonyl]amino]-2,3,3a,4,5,5a,5b,6,7,7a,8,11,11a,11b,12,13,13a,13b-octadecahydro-5a,5b,8,8,11a-pentamethyl-1-(1-methylethenyl)-1H-cyclopenta[a]chrysen-9-yl]] | > 7.00 |
| C=C(C)[C@@H]1CC[C@]2(NC(=O)CCN(C)C)CC[C@]3(C)[C@H](CC[C@@H]4[C@@]5(C)CC=C(c6ccc(C(=O)O)cc6)C(C)(C)[C@@H]5CC[C@]43C)[C@@H]12 [Example 73, 4-((1R,3aS,5aR,5bR,7aR,11aS,11bR,13aR,13bR)-3a-(3-(dimethylamino)propanamido)-5a,5b,8,8,11a-pentamethyl-1-(prop-1-en-2-yl)-2,3,3a,4,5,5a,5b,6,7,7a,8,11,11a,11b,12,13,13a,13b-octadecahydro-1H-cyclopenta[a]chrysen-9-yl)benzoic acid] | > 7.00 |
| C=C(C)[C@@H]1CC[C@]2(NC(=O)CCCN(C)C)CC[C@]3(C)[C@H](CC[C@@H]4[C@@]5(C)CC=C(c6ccc(C(=O)O)cc6)C(C)(C)[C@@H]5CC[C@]43C)[C@@H]12 [Example 74, 4-((1R,3aS,5aR,5bR,7aR,11aS,11bR,13aR,13bR)-3a-(4-(dimethylamino)butanamido)-5a,5b,8,8,11a-pentamethyl-1-(prop-1-en-2-yl)-2,3,3a,4,5,5a,5b,6,7,7a,8,11,11a,11b,12,13,13a,13b-octadecahydro-1H-cyclopenta[a]chrysen-9-yl)benzoic acid] | > 7.00 |
| C=C(C)[C@@H]1CC[C@]2(NC(=O)CCc3nccn3C)CC[C@]3(C)[C@H](CC[C@@H]4[C@@]5(C)CC=C(c6ccc(C(=O)O)cc6)C(C)(C)[C@@H]5CC[C@]43C)[C@@H]12 [Example 75, 4-((1R,3aS,5aR,5bR,7aR,11aS,11bR,13aR,13bR)-5a,5b,8,8,11a-pentamethyl-3a-(3-(1-methyl-1H-imidazol-2-yl)propanamido)-1-(prop-1-en-2-yl)-2,3,3a,4,5,5a,5b,6,7,7a,8,11,11a,11b,12,13,13a,13b-octadecahydro-1H-cyclopenta[a]chrysen-9-yl)benzoic acid] | > 7.00 |
| C=C(C)[C@@H]1CC[C@]2(NC(=O)C(=O)N(C)C)CC[C@]3(C)[C@H](CC[C@@H]4[C@@]5(C)CC=C(c6ccc(C(=O)O)cc6)C(C)(C)[C@@H]5CC[C@]43C)[C@@H]12 [Example 76, 4-((1R,3aS,5aR,5bR,7aR,11aS,11bR,13aR,13bR)-3a-(2-(dimethylamino)-2-oxoacetamido)-5a,5b,8,8,11a-pentamethyl-1-(prop-1-en-2-yl)-2,3,3a,4,5,5a,5b,6,7,7a,8,11,11a,11b,12,13,13a,13b-octadecahydro-1H-cyclopenta[a]chrysen-9-yl)benzoic acid] | > 7.00 |
| C=C(C)[C@@H]1CC[C@]2(NC(=O)Cc3nnn[nH]3)CC[C@]3(C)[C@H](CC[C@@H]4[C@@]5(C)CC=C(c6ccc(C(=O)O)cc6)C(C)(C)[C@@H]5CC[C@]43C)[C@@H]12 [Example 77, 4-((1R,3aS,5aR,5bR,7aR,11aS,11bR,13aR,13bR)-3a-(2-(1H-tetrazol-5-yl)acetamido)-5a,5b,8,8,11a-pentamethyl-1-(prop-1-en-2-yl)-2,3,3a,4,5,5a,5b,6,7,7a,8,11,11a,11b,12,13,13a,13b-octadecahydro-1H-cyclopenta[a]chrysen-9-yl)benzoic acid] | > 7.00 |
| C=C(C)[C@@H]1CC[C@]2(NC(=O)C(=O)Nc3nncs3)CC[C@]3(C)[C@H](CC[C@@H]4[C@@]5(C)CC=C(c6ccc(C(=O)O)cc6)C(C)(C)[C@@H]5CC[C@]43C)[C@@H]12 [Example 78, 4-((1R,3aS,5aR,5bR,7aR,11aS,11bR,13aR,13bR)-3a-(2-(1,3,4-thiadiazol-2-ylamino)-2-oxoacetamido)-5a,5b,8,8,11a-pentamethyl-1-(prop-1-en-2-yl)-2,3,3a,4,5,5a,5b,6,7,7a,8,11,11a,11b,12,13,13a,13b-octadecahydro-1H-cyclopenta[a]chrysen-9-yl)benzoic acid] | > 7.00 |
